The record followed here is patent US20220380366A1, “HETEROCYCLIC SULFOXIMINE COMPOUND AND INTERMEDIATE THEREOF, PREPARATION METHOD THEREFOR, AND APPLICATION THEREOF” (priority 2019, published 2022).

Each structure is given as a SMILES string. Like-named read-outs stand apart in the source and are kept apart here.

A word on the IC50: it is the concentration that inhibits the measured activity by half.

In one experiment the target is T1, wild-type RET kinase (Homo sapiens, UniProt P07949).
T1 construct: purchased Reaction Biology Corporation (contract assay; enzyme is the CRO's)
T1 sequence (P07949 29-1114): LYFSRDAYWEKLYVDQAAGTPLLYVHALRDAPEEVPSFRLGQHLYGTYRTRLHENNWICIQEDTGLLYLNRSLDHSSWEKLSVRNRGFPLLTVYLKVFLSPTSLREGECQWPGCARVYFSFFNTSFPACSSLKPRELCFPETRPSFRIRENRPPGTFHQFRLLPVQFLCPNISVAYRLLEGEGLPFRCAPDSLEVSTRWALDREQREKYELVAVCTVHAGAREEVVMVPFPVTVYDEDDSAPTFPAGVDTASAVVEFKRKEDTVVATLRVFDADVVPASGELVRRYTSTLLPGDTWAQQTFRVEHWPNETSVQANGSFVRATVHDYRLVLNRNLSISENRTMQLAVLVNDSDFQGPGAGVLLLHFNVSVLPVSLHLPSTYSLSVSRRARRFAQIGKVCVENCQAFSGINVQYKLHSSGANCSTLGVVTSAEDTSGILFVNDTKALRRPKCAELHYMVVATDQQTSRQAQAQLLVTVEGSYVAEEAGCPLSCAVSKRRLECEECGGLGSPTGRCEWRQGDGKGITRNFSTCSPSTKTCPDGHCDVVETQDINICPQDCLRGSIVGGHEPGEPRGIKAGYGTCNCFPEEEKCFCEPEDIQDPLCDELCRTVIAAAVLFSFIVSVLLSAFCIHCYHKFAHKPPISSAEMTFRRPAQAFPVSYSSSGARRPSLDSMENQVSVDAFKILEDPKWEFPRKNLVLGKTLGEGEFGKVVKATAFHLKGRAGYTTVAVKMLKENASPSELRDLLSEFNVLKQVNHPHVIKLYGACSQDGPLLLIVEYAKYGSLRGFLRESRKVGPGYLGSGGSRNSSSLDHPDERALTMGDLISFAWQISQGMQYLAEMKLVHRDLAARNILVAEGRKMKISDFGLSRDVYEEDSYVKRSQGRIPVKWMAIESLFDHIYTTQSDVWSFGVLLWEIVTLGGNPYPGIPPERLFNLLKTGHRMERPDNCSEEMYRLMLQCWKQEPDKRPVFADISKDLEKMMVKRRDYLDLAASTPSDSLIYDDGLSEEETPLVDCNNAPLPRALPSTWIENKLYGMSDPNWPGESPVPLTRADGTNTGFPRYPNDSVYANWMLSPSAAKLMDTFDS
In words: Biochemical IC50 of wild-type RET kinase (33P-ATP filter binding, Reaction Biology). As to the method: (§1) For detailed test methods, the following references were referred to: T. Anastassiadis, S. W. Deacon, K. Devarajan, H. Ma, J. R. Peterson. […] Nat. Biotech.
(§2) The compounds of the present invention were dissolved in dimethyl sulfoxide (DMSO) to prepare 10 mM stock solutions, and ten different doses by 3-fold serial dilutions from 10 mM were prepared. The ATP concentration used in this determination was 1 μM.
(§3) Base reaction buffer: 20 mM 4-(2-hydroxyethyl)-1-piperazineethanesulfonic acid buffer (Hepes, pH 7.5), 10 mM magnesium chloride, 1 mM ethylene glycol-bis(3-aminoethylether)-N,N,N′,N′-tetraacetic acid (EGTA), 0.02% Brij™-35 (purchased from ThermoFisher Scientific), 0.02 mg/mL bovine serum albumin (BSA), 0.1 mM sodium orthovanadate (Na3VO4), 2 mM dithiothreitol (DTT), 1% dimethyl sulfoxide (DMSO).
(§4) a) adding the corresponding substrate to a freshly prepared base reaction buffer;
(§5) b) adding necessary cofactors;
(§6) c) adding kinase and shake gently;
(§7) d) adding the compounds in DMSO using Acoustic technology (Echo550; nanoliter range) and incubating at room temperature for 20 minutes;
(§8) e) adding 33P-ATP (specific activity 10 μCi/μL) to initiate the reaction;
(§9) f) incubating the kinase reaction at room temperature for 2 hours;
(§10) g) spotting the resultant of reaction on P81 ion exchange paper (purchased from Whatman);
(§11) h) detecting kinase activity by filter binding assay.
(§12) IC50 values were generated using Prism (GraphPad software).

The target in the next experiment is T2, RET(V804M) mutant (Homo sapiens, UniProt P07949, V804M).
T2 construct: purchased Reaction Biology Corporation (contract assay; enzyme is the CRO's)
T2 sequence (P07949 29-1114 V804M): as the sequence (P07949 29-1114) above, with V776M counted along it
In words: Biochemical IC50 of RET(V804M) mutant (33P-ATP filter binding, Reaction Biology). As to the method: as §1, §2, §3, §4, §5, §6, §7, §8, §9, §10, §11, §12

A further experiment deals with T3, RET-CCDC6 (Homo sapiens, UniProt P07949).
T3 construct: CCDC6 (fusion partner, UniProt Q16204); purchased Reaction Biology Corporation (contract assay; enzyme is the CRO's); the other entry of the earlier key: CCDC6 (Q16204, Coiled-coil domain-containing protein 6)
T3 sequence (P07949 with tags, fused parts or gaps): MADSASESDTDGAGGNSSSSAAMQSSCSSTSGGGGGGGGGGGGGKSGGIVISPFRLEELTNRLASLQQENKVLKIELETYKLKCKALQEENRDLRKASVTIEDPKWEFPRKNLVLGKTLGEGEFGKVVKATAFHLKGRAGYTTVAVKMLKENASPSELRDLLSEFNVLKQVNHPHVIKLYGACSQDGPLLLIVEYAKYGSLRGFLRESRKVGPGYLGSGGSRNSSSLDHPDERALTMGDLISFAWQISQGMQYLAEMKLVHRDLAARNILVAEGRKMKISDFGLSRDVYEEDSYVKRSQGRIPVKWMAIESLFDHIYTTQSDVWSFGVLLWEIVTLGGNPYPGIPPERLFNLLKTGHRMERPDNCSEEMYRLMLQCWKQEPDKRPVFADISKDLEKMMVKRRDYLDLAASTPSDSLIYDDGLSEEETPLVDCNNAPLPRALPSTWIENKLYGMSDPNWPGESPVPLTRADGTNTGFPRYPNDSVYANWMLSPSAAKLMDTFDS
In words: Biochemical IC50 of RET-CCDC6 fusion (33P-ATP filter binding, Reaction Biology). How it is done: as §1, §2, §3, §4, §5, §6, §7, §8, §9, §10, §11, §12

The subject of experiment [1] is Phospho-RET in LC-2/ad lung cancer cells. In words: Phospho-RET ELISA in LC-2/ad tumor cells. Conditions: Homo sapiens, 1 h, read-out: Cell IC50 Phospho-RET. The experiment is classed as cell-based. How it is done:
(§13) The compounds of the present invention were dissolved in dimethyl sulfoxide (DMSO) to prepare 10 mM stock solutions, and ten different doses by 3-fold serial dilutions from 10 mM were prepared. An ELISA assay format was used in the test.
(§14) PathScan® Phospho-Ret (panTyr) and p44/42 MAPK (Thr202/Tyr204) (ERK) Sandwich ELISA kits were purchased from Cell Signaling Technology. The LC-2/ad lung cancer cell line was purchased from Sigma-Aldrich. […] The medium was supplemented with 10% fetal bovine serum (FBS), 100 μg/mL penicillin and 100 μg/mL streptomycin, and the cultures were maintained at 37° C. in a humidified atmosphere of 5% CO2 and 95% air.
(§15) a) 1.5×10^4 LC-2/ad cells were seeded in the wells of a 96-well tissue culture plate overnight;
(§16) b) the cells were treated with DMSO or the test compound in DMSO (the initial concentration was 1 μM, and ten doses by 3-fold serial dilutions) for one hour;
(§17) The plate was shaken for 1 minute, then placed on a rocking platform at 4° C. for 30 minutes;
(§18) d) 80 μL/well of lysate was added to the appropriate wells of each ELISA plate and the plate was incubated overnight at 4° C. on a rocking platform;
(§19) e) the contents of the plate were discarded into a container and the wells were washed for four times with 200 μL/well of 1×ELISA wash buffer;
(§20) f) 100 μL of reconstituted Phospho-Ret(panTyr) or Phospho-ERK(Thr202/Tyr204; p44/42MAPK) detection antibody was added to the appropriate wells and the plate was incubated at 37° C. for 1 hour;
(§21) g) the washing procedure was repeated and 100 μL of reconstituted HRP-linked secondary antibody was added to each well of two plates and the plates were incubated at 37° C. for 30 minutes;
(§22) h) the washing procedure was repeated, 100 μL of TMB substrate was added to each well, and the plates were incubated at 37° C. for 45 minutes;
(§23) i) 100 μL of STOP solution was added to each well and the plate was gently shaken for a few seconds.
On the technique in general: An ELISA detects its analyte on a solid surface through an enzyme-linked reagent.

Experiment [2] deals with Phospho-ERK in LC-2/ad lung cancer cells. In words: Phospho-ERK ELISA in LC-2/ad tumor cells. Conditions: Homo sapiens, 1 h, read-out: Cell IC50 Phospho-ERK. The experiment is classed as cell-based. How it is done: as §13, §14, §15, §16, §17, §18, §19, §20, §21, §22, §23
Where [3] appears, read: wild-type RET kinase, ATP 1 μM, 33P-ATP filter binding, read-out: Biochemical IC50 RET.
The mark [4] stands for this setting: RET(V804M) mutant, ATP 1 μM, 33P-ATP filter binding, read-out: Biochemical IC50 RET (V804M).
[5] abbreviates: RET-CCDC6 fusion, ATP 1 μM, 33P-ATP filter binding, read-out: Biochemical IC50 RET-CCDC6.

As for `CC(C)(O)COc1cc(-c2ccc(N3CCS(=N)(=O)CC3)nc2)c2c(C#N)cnn2c1` [Ex. 2, 6-(2-hydroxy-2-methylpropoxy)-4-(6-(1-imino-1-oxothiomorpholinyl)pyridin-3-yl)pyrazolo[1,5-a]pyridine-3-carbonitrile], the figures for the IC50 on wild-type RET kinase (setting [3]), on RET(V804M) mutant (setting [4]) and on RET-CCDC6 (setting [5]) were 4.23 nM, 21.2 nM and 2.81 nM, respectively.

Take `Cn1cc(-c2cn3ncc(C#N)c3c(-c3ccc(N4CCC(N=[S@](C)(=O)c5ccccc5)CC4)nc3)n2)cn1` [Ex. 25, 4-(6-(4-(((R)—S-methyl-S-phenyl-oxo-λ^4-sulfinyl)amino)piperidin-1-yl)pyridin-3-yl)-6-(1-methyl-1H-pyrazole-4-yl)pyrazolo[1,5-a]pyrazine-3-carbonitrile]: the 50% inhibitory concentration (IC50) on wild-type RET kinase worked out at 2.02 nM; at RET(V804M) mutant, 10.6 nM; on RET-CCDC6 it was 1.15 nM; in experiment [1] (LC-2-ad), 84.7 nM; in experiment [2], 9.27 nM.

In the case of `CC(C)(O)COc1cc(-c2ccc(N3CCC(N=[S@](C)(=O)c4ccccc4)CC3)nc2)c2c(C#N)cnn2c1` [Ex. 10, 4-(6-(4-(((R)—S-methyl-S-phenyl-oxo-λ^4-sulfinyl)amino)piperidin-1-yl)pyridin-3-yl)-6-(2-hydroxy-2-methylpropoxy)pyrazolo[1,5-a]pyridine-3-carbonitrile], the concentration for half-maximal inhibition (IC50) turned out to be 6.18 nM at wild-type RET kinase (setting [3]), 36 nM on RET(V804M) mutant (setting [4]) and 4.59 nM on RET-CCDC6 (setting [5]).

For the compound `CC(C)(O)COc1cc(-c2ccc(N3CCS(=O)(=NC4CCNCC4)CC3)nc2)c2c(C#N)cnn2c1` [Ex. 7, 6-(2-hydroxy-2-methylpropoxy)-4-(6-(1-oxo-1-(piperidin-4-ylimino)thiomorpholinyl)pyridin-3-yl)pyrazolo[1,5-a]pyridine-3-carbonitrile], the IC50 at wild-type RET kinase (setting [3]) turned out to be 18.1 nM; on RET(V804M) mutant (setting [4]), 165 nM; at RET-CCDC6 (setting [5]), 12.6 nM.

Regarding `CC(C)(O)COc1cc(-c2ccc(N3CCC(N=[S@@](C)(=O)c4ccccc4)CC3)nc2)c2c(C#N)cnn2c1` [Ex. 9, 4-(6-(4-(((S)—S-methyl-S-phenyl-oxo-λ^4-sulfinyl)amino)piperidin-1-yl)pyridin-3-yl)-6-(2-hydroxy-2-methylpropoxy)pyrazolo[1,5-a]pyridine-3-carbonitrile], the IC50 at wild-type RET kinase (setting [3]) was 14.2 nM; at RET(V804M) mutant (setting [4]) it was 138 nM; at RET-CCDC6 (setting [5]) it was 8.14 nM.

Consider `Cn1cc(-c2cn3ncc(C#N)c3c(-c3ccc(N4CCC(N=[S@@](C)(=O)c5ccccc5)CC4)nc3)n2)cn1` [Ex. 24, 4-(6-(4-(((S)—S-methyl-S-phenyl-oxo-λ^4-sulfinyl)amino)piperidin-1-yl)pyridin-3-yl)-6-(1-methyl-1H-pyrazole-4-yl)pyrazolo[1,5-a]pyrazine-3-carbonitrile], for which the half-maximal inhibitory concentration (IC50) on wild-type RET kinase (setting [3]) stood at 4.06 nM; on RET(V804M) mutant (setting [4]), 26.3 nM; at RET-CCDC6 (setting [5]) it was 1.93 nM.

As to `COc1ccc(CN2C3CC2CN(c2ccc(-c4cc(OCC(C)(C)O)cn5ncc(C#N)c45)cn2)C3)cn1` [LOXO292, reference compound], the IC50 was 6.08 nM in experiment [1] (LC-2/ad lung cancer cells, one hour treatment, sandwich ELISA) and above 1000 nM in experiment [2].

Consider `COc1ccc(N=S2(=O)CCN(c3ccc(-c4nc(-c5cnn(C)c5)cn5ncc(C#N)c45)cn3)CC2)cn1` [Ex. 22, 4-(6-(1-((6-methoxypyridin-3-yl)imino)-1-oxothiomorpholinyl)pyridin-3-yl)-6-(1-methyl-1H-pyrazole-4-yl)pyrazolo[1,5-a]pyrazine-3-carbonitrile], for which the IC50 came out at 0.673 nM at wild-type RET kinase (setting [3]), 3.24 nM on RET(V804M) mutant (setting [4]) and 0.41 nM on RET-CCDC6 (setting [5]).

`CC(C)(O)COc1cc(-c2ccc(N3CCC(N=S(C)(C)=O)CC3)nc2)c2c(C#N)cnn2c1` [Ex. 8, 4-(6-(4-((dimethyloxo-λ^4-sulfinyl)amino)piperidin-1-yl)pyridin-3-yl)-6-(2-hydroxy-2-methylpropoxy)pyrazolo[1,5-a]pyridine-3-carbonitrile]: the IC50 at wild-type RET kinase (setting [3]) was found to be 9.45 nM; on RET(V804M) mutant (setting [4]), 63.6 nM; at RET-CCDC6 (setting [5]), 5.89 nM.

For the compound `Cn1cc(-c2cc(-c3ccc(N4CCC(N=[S@@](C)(=O)c5ccccc5)CC4)nc3)c3c(C#N)cnn3c2)cn1` [Ex. 17, 4-(6-(4-(((S)—S-methyl-S-phenyl-oxo-λ^4-sulfinyl)amino)piperidin-1-yl)pyridin-3-yl)-6-(1-methyl-1H-pyrazole-4-yl)pyrazolo[1,5-a]pyridine-3-carbonitrile], the concentration for half-maximal inhibition (IC50) amounted to 1.49 nM at wild-type RET kinase (setting [3]), 10.6 nM on RET(V804M) mutant (setting [4]) and 0.776 nM at RET-CCDC6 (setting [5]).

As to `Cn1cc(-c2cn3ncc(C#N)c3c(-c3ccc(N4CCC(N=S(C)(C)=O)CC4)nc3)n2)cn1` [Ex. 23, 4-(6-(4-((dimethyloxo-λ^4-sulfinyl)amino)piperidin-1-yl)pyridin-3-yl)-6-(1-methyl-1H-pyrazole-4-yl)pyrazolo[1,5-a]pyrazine-3-carbonitrile], the results for the IC50 at wild-type RET kinase, at RET(V804M) mutant and at RET-CCDC6 were 4.09 nM, 25 nM and 2.16 nM, respectively.

As to `COc1ccc(N=S2(=O)CCN(c3ccc(-c4cc(OCC(C)(C)O)cn5ncc(C#N)c45)cn3)CC2)cn1` [Ex. 3, 6-(2-hydroxy-2-methylpropoxy)-4-(6-(1-((6-methoxypyridin-3-yl)imino)-1-oxothiomorpholinyl)pyridin-3-yl)pyrazolo[1,5-a]pyridine-3-carbonitrile], the IC50 at wild-type RET kinase (setting [3]) is 1.66 nM; on RET(V804M) mutant (setting [4]) it was 3.78 nM; at RET-CCDC6 (setting [5]) it was 0.993 nM.

Regarding `CC(C)CN=S1(=O)CCN(c2ccc(-c3cc(OCC(C)(C)O)cn4ncc(C#N)c34)cn2)CC1` [Ex. 4, 6-(2-hydroxy-2-methylpropoxy)-4-(6-(1-(isobutylimino)-1-oxothiomorpholinyl)pyridin-3-yl)pyrazolo[1,5-a]pyridine-3-carbonitrile], the values for the IC50 on wild-type RET kinase (setting [3]), on RET(V804M) mutant (setting [4]) and at RET-CCDC6 (setting [5]) were 6.74 nM, 55.7 nM and 4.59 nM, respectively.

With `COc1ccc(CN=S2(=O)CCN(c3ccc(-c4cc(OCC(C)(C)O)cn5ncc(C#N)c45)cn3)CC2)cn1` [Ex. 5, 6-(2-hydroxy-2-methylpropoxy)-4-(6-(1-(((6-methoxypyridin-3-yl)methyl)imino)-1-oxothiomorpholinyl)pyridin-3-yl)pyrazolo[1,5-a]pyridine-3-carbonitrile], the IC50 is 3.62 nM on wild-type RET kinase (setting [3]), 17.9 nM on RET(V804M) mutant (setting [4]) and 2.09 nM on RET-CCDC6 (setting [5]).
